US20080131420A1, “METHODS AND COMPOSITIONS FOR TREATING MUCOSAL INFLAMMATION” (Accentia, Inc., priority 2006, published 2008)
“Also recorded” adds a separate entry of the source.

How the values were obtained:
Assay type in all cases: cell-based
[1] = tested on: Alternaria alternata; test: Antifungal Efficacy, sample diluted and plated, plates read for mold growth (Example 1); conditions: 100% sample; diluted and plated at 1, 4, 24 and 48 hours of incubation; plate read on days 2, 3 and 5
Protocol: SINOFRESH Essential Nasal Cleansing Formula, which included cetylpyridinium chloride (CPC) at 0.02% and benzalkonium chloride (BKC) at 0.005%, was tested for its ability to inhibit Alternaria alternata, a fungus typically associated with non-invasive fungus-induced rhinosinusitis. Minimum Inhibitory Concentration (MIC), Antifungal Efficacy, and Selective Agar Streak were all determined, and met the pre-defined acceptance criteria that the negative control test tube had to remain free of growth throughout the study, while the positive control tube had to retain growth throughout the study. No deviations were noted during the study.
A 100% sample of 0.02% cetylpyridinium chloride was tested for antifungal efficacy. At 1, 4, 24, and 48 hours of incubation, the sample was diluted and plated. On days 2, 3, and 5, the plate was read.

[2] = tested on: Alternaria alternata; test: Cylinder Agar Plate Assay (Example 3)
Excerpt: Cetyl pyridinium chloride (CPC) and benzalkonium chloride (BKC) were both independently tested to determine their efficacy of inhibiting Alternaria alternata, a fungus typically associated with non-invasive fungus-induced rhinosinusitis. An in vitro test of the efficacy of BKC and CPC in combination was also completed against Alternaria alternata.
Five concentrations of BKC and CPC were independently tested against Alternaria alternata in a cylinder Agar Plate Assay. The CPC concentrations were 0.005%, 0.01%, 0.05%, 0.25% and 1.0%, whereas the BKC concentrations were 0.00025%, 0.001%, 0.005%, 0.025%, and 0.1%. These concentrations were chosen to include the concentrations in the SINOFRESH product as well as two concentrations above and two concentrations below the SINOFRESH product.
Five concentrations of a combination of BKC and CPC were independently tested against Alternaria alternata in a cylinder Agar Plate Assay. The concentrations were as follows:
Five concentrations of the SINOFRESH product were also subjected to the same Agar Plate Assay, with the same concentrations of BKC and CPC.

[3] = tested on: Alternaria alternata; test: Inhibition of Alternaria alternata in RPMI-1640 broth tubes, visual growth rating 0-4 (Example 2); conditions: spiked, 48 hours at 30-35°
Protocol: Amphotericin-B and Parabens (methylparaben and propylparaben) were tested for their ability to inhibit the fungus Alternaria alternata. Samples were stored at 2-8° C. prior to use.
Prepared an inoculating culture of Alternaria alternata by placing an ATCC pellet in 5 mL phosphate buffer, after dissolution spread the broth and dissolved pellet over the surface of a PDA plate using a FIG. 8 motion. The inoculum plate was incubated for five days at 20-25° C.
After the five day incubation period, 3 ml of modified phosphate buffer was used to wet the surface growth of the PDA plate. The surface of the culture was washed with the buffer using a sterile spreader stick. After washing, a 10 mL pipette was used to remove as much of the wash as is possible without picking up any agar. The wash was pipetted into a sterile culture tube.
Serial dilutions of the wash modified phosphate buffer were performed using modified phosphate buffer to determine the dilution that yields a mold population of 10^6 per mL. The dilutions were done by pipetting 1 mL of each dilution of the wash into molten potato dextrose agar plates pH 3.5 in quadruplicate, incubating at 20-25° C. for five days, assuring that there are not mixed cultures, and then counting the colonies on the plates. The correct dilution yielded counts of 30-300 CFU's. To maintain the correct dilution for inoculation, all dilutions were refrigerated at 2-8° C. until needed. […] A 0.1 mL aliquot of this dilution was used to inoculate the inhibition culture tubes.
Twelve sterile test tubes were prepared with 9 mL Modified Synthetic Medium RPMI-1640 broth that has been tempered in a 45-50° C. water bath and labeled as follows: Amphotericin B neg. control, Ampho-B 100 spike, Ampho-B 2 spike, Ampho-B 1 spike, Ampho-B 0.5 spike, Paraben neg. control, Paraben 400/100 spike, Paraben 300/75 spike, Paraben 200/50 spike, Paraben 100/25 spike, Pos. control, Neg control.
An Amphotericin-B suspension was prepared by placing in suspension 10 mg of Amphotericin-B in 10 mL in modified phosphate buffer. The sample was mixed by vortex for 30 seconds. […]
Control samples, Amphotericin B and Parabens dilutions were all prepared from the stock solutions. To all tube labeled “spike” and positive control, 0.1 mL of the inoculated buffer was added and determined to yield […]. […] The growth in each tube was recorded visually, on a 0-4 scale: 0: no growth observed, 1: slight growth or ˜25% of the growth control, 2: prominent growth or ˜50% of the growth control, 3: slight reduction in growth or ˜75% of the growth control, and 4: no reduction in growth or 100% of the growth control. […]

## CCCCCCCCCCCCCCCC[n+]1ccccc1 [CPC, cetylpyridinium chloride]
[1]
  mold growth on plate: did not exhibit any mold growth
[2]; CPC alone at 0.005%, 0.01%, 0.05%, 0.25% and 1.0%
  effect on the growth of Alternaria alternata: most observable effect

## benzalkonium chloride [BKC]
[2]; BKC alone at 0.005% (concentration in the SINOFRESH product)
  effect on the growth of Alternaria alternata: little to no effect; also recorded: essentially inactive
[2]; BKC alone at concentrations of about 0.025% or above
  effect on the growth of Alternaria alternata: some effect

## C[C@@H]1[C@H](O)[C@@H](C)/C=C/C=C/C=C/C=C/C=C/C=C/C=C/[C@H](O[C@@H]2O[C@H](C)[C@@H](O)[C@H](N)[C@@H]2O)C[C@@H]2O[C@](O)(C[C@@H](O)C[C@@H](O)[C@H](O)CC[C@@H](O)C[C@@H](O)CC(=O)O[C@H]1C)C[C@H](O)[C@H]2C(=O)O [Amphotericin B]
[3]; 0.5 μg/mL
  Rating (growth, 0-4 scale): 2 (prominent growth or ˜50% of the growth control)
[3]; 1.0 μg/mL
  Rating (growth, 0-4 scale): 2 (prominent growth or ˜50% of the growth control)
[3]; 2.0 μg/mL
  Rating (growth, 0-4 scale): 1 (slight growth or ˜25% of the growth control)
[3]; 100 μg/mL
  Rating (growth, 0-4 scale): 1 (slight growth or ˜25% of the growth control)
